Patent US9562268B2, “Risk assessment for adverse drug reactions” (Academia Sinica, priority 2003, dated 2017)
Read-outs that look alike come from different tables or passages of the source.

Columns and labels:
HLA-Cw*0806 = settings: human, in vivo
Experimental: (§1) A total of 112 SJS/TEN patients were recruited either from Chang Gung Memorial Hospital or from several other medical centers throughout Taiwan. […] Drug taking history including dosage and duration, and the phenotypes of adverse drug reactions were recorded. The diagnostic criteria of clinical morphology were defined according to Roujeau (Roujeau J C, 1994). We define SJS as skin detachment of less than 10% of body-surface area, overlap SJS-TEN as skin detachment of 10-30%, and TEN as greater than 30%. SJS, overlap SJS-TEN and TEN are collectively referred to as SJS/TEN.
(§2) 73 tegretol-tolerant patients were included as controls. Volunteers from the general population of Taiwanese (n=94; age range: 20 to 80 years) were also recruited. The study was approved by the institutional review board, and informed consent was obtained.
(§3) Reagents for reverse lineblot sequence-specific oligonucleotide (SSO) were purchased from DYNAL Biotech Ltd. (Bromborough, UK) and used for HLA genotyping. Briefly, a PCR product was generated using biotinylated primer pairs for the second and the third exons of the HLA class I or class II loci, and then hybridized to a lineblot of SSO of probes immobilized on a nylon membrane. The presence of biotinylated PCR product bound to a specific probe is detected using streptavidin-horseradish peroxidase (HRP) and a chromogenic, soluble substrate to produce a blue “line” at the position of the positive probe. The probe reactivity pattern was interpreted by the genotyping software Dynal RELI™ SSO (DYNAL Biotech Ltd.; Bromborough, UK). Potential ambiguities were further resolved by sequence-based typing and DNA sequencing performed according to the IHWG Technical Manual (International Histocompatibility Working Group).

HLA-Cw*0801 = settings: human, in vivo
Experimental: as §1, §2, §3

HLA-Cw*0302 = settings: human, in vivo
Experimental: as §1, §2, §3

HLA-A*1101 = test: Equivalent genetic marker incidence in patients with ADRs: HLA-A*1101; type: in vivo, human; settings: SJS/TEN patients who received the drug
Experimental: as §1, §2
(§4) Reagents for reverse lineblot sequence-specific oligonucleotide (SSO) were purchased from DYNAL Biotech Ltd. (Bromborough, UK) and used for HLA genotyping. […] The presence of biotinylated PCR product bound to a specific probe is detected using streptavidin-horseradish peroxidase (HRP) and a chromogenic, soluble substrate to produce a blue “line” at the position of the positive probe. […]

HLA-B*4601 = system: HLA-B*4601
Experimental: as §1, §2, §3
Allele frequencies in the different groups were compared by the Chi-square method with Yates correction by constructing 2×2 tables. P values were corrected for comparisons of multiple HLA alleles (Pc) by multiplying the raw P values by the observed number of HLA alleles present within the loci. Odds ratios were calculated with Haldane's modification, which adds 0.5 to all cells to accommodate possible zero counts.

HLA-DRB1*1202 = test: Equivalent genetic marker incidence in patients with ADRs: HLA-DRB1*1202; type: in vivo, human; settings: SJS/TEN patients who received the drug
Experimental: as §1, §2, §4

[1] = patients with milder cutaneous reactions to the drug (n = 16)

| Compound | HLA-Cw*0806 frequency (HLA-Cw*0806) | Number of patients carrying HLA-Cw*0806 (HLA-Cw*0806) | HLA-Cw*0801 frequency (HLA-Cw*0801) [%] | Number of patients carrying HLA-Cw*0801 (HLA-Cw*0801) | HLA-Cw*0302 frequency (HLA-Cw*0302) [%] | Number of patients carrying HLA-Cw*0302 (HLA-Cw*0302) | HLA-A*1101 frequency (HLA-A*1101) [%] | Number of patients carrying HLA-A*1101 (HLA-A*1101) | HLA-B*4601 frequency (HLA-B*4601; drug-tolerant group (n = 73)) [%] | Number of patients carrying HLA-B*4601 (HLA-B*4601; drug-tolerant group (n = 73)) | HLA-B*4601 frequency (HLA-B*4601; [1]) [%] | Number of patients carrying HLA-B*4601 (HLA-B*4601; [1]) | odds ratio, B*4601 associated drug-induced milder cutaneous ADRs (HLA-B*4601; versus drug-tolerant group) | HLA-DRB1*1202 frequency (HLA-DRB1*1202) [%] | Number of patients carrying HLA-DRB1*1202 (HLA-DRB1*1202) |
| --- | --- | --- | --- | --- | --- | --- | --- | --- | --- | --- | --- | --- | --- | --- | --- |
| Oc1ncnc2[nH]ncc12 [allopurinol] | 0(0%) | 0(0%) | 11.7 | 2 | 82 | 14 |  |  |  |  |  |  |  |  |  |
| NC(=O)N1c2ccccc2C=Cc2ccccc21 [carbamazepine] |  |  |  |  |  |  | 73.8 | 31 | 26 | 19 | 62.5 | 10 | 4.73 | 83.3 | 35 |
